Key:
BRD4 BD1 = biological target: T1, BRD4 BD1 (Homo sapiens, UniProt O60885); test: AlphaScreen binding assay, BRD4 Bromodomain 1
T1 construct: made in house
In short: (§1)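 An AlphaScreen competition format was used with His-BRD4 BD1 or BD2 and biotin-H4 K5/8/12/16-acetyl peptide, each at matched final levels of 50 nM (BD1) or 100 nM (BD2). Incubation in HEPES/NaCl buffer with 0.1% BSA and 0.01% Triton X-100 ran ≥1 h before IC50 determination.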

BRD4 BD2 = biological target: T2, BRD4 BD2 (Homo sapiens, UniProt O60885); test: AlphaScreen binding assay, BRD4 Bromodomain 2
T2 construct: made in house
In short: as §1

MV4-11 cells = test: Oncology cell growth assay (3-day proliferation, CellTiter-Glo); type: cell-based; conditions: Homo sapiens, MV4-11, 72 h, AML cell line MV4-11, 72 hours, compounds grouped by IC50 range, read-out: MV4-11 IC50 (inhibition of proliferation, gIC50)
In short: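 Compounds were serially diluted 3-fold in DMSO, giving final well concentrations from 10 down to 0.0045 μM. MV4-11 cells were then seeded at 3000 cells/well in RPMI 1640 with 10% FBS and incubated 72 hours. CellTiter-Glo signal was measured and gIC50 obtained by four-parameter logistic regression.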

Row | IC50 (BRD4 BD1) | IC50 (BRD4 BD2) | IC50 (MV4-11 cells) | SMILES
1 | 1 to 10 µM | < 0.05 µM | 0.1 to 0.5 µM | CC(=O)N1c2ccc(-c3ccc(S(=O)(=O)N4CCN(C)CC4)cc3)cc2N(C(=O)c2ccco2)C[C@@H]1C [Example I-278]
2 | 0.1 to 1 µM | < 0.05 µM | < 0.1 µM | CC(=O)N1c2ccc(-c3ccc(NS(C)(=O)=O)cc3)cc2N(C(=O)c2ccco2)C[C@@H]1C [Example I-279]
3 | 1 to 10 µM | < 0.05 µM | 0.1 to 0.5 µM | CC(=O)N1c2ccc(-c3ccc(NC(N)=O)cc3)cc2N(C(=O)c2ccco2)C[C@@H]1C [Example I-280]
4 | 1 to 10 µM | < 0.05 µM | 0.1 to 0.5 µM | CC(=O)N1c2ccc(-c3ccc(S(N)(=O)=O)cc3)cc2N(C(=O)c2ccco2)C[C@@H]1C [Example I-281]
5 | 1 to 10 µM | < 0.05 µM | 0.1 to 0.5 µM | CC(=O)N1c2ccc(-c3ccc(C(=O)N4CCCC4)cc3)cc2N(C(=O)c2ccco2)C[C@@H]1C [Example I-282]
6 | 1 to 10 µM | < 0.05 µM | 0.1 to 0.5 µM | CC(=O)N1c2ccc(-c3ccc(C(=O)N4CCOCC4)cc3)cc2N(C(=O)c2ccco2)C[C@@H]1C [Example I-283]
7 | 1 to 10 µM | < 0.05 µM | 0.1 to 0.5 µM | CC(=O)N1c2ccc(-c3ccc(NC(=O)N(C)C)cc3)cc2N(C(=O)c2ccco2)C[C@@H]1C [Example I-284]
8 | 1 to 10 µM | < 0.05 µM | 0.1 to 0.5 µM | CC(=O)N1c2ccc(-c3ccc(NC(=O)N4CCOCC4)cc3)cc2N(C(=O)c2ccco2)C[C@@H]1C [Example I-285]
9 | 0.1 to 1 µM | > 0.5 µM | < 0.1 µM | CC(=O)N1c2ccc(-c3ccc(S(=O)(=O)N4CCCC4)cc3)cc2N(C(=O)c2ccco2)C[C@@H]1C [Example I-286]
10 | 0.1 to 1 µM | < 0.05 µM | < 0.1 µM | CC(=O)N1c2ccc(-c3ccc(NS(=O)(=O)C4CC4)cc3)cc2N(C(=O)c2ccco2)C[C@@H]1C [Example I-287]
11 | 1 to 10 µM | < 0.05 µM | 0.1 to 0.5 µM | CC(=O)N1c2ccc(-c3ccc(S(=O)(=O)C(C)C)cc3)cc2N(C(=O)c2ccco2)C[C@@H]1C [Example I-288]
12 | 0.1 to 1 µM | < 0.05 µM | 0.1 to 0.5 µM | CC(=O)N1c2ccc(-c3ccc(S(=O)(=O)N4CCC4)cc3)cc2N(C(=O)c2ccco2)C[C@@H]1C [Example I-289]
13 | 1 to 10 µM | < 0.05 µM | 0.1 to 0.5 µM | CC(=O)N1c2ccc(-c3ccc(C(=O)NCCO)cc3)cc2N(C(=O)c2ccco2)C[C@@H]1C [Example I-290]
14 | 0.1 to 1 µM | < 0.05 µM | 0.1 to 0.5 µM | CC(=O)N1c2ccc(-c3ccc(S(=O)(=O)C4CC4)cc3)cc2N(C(=O)c2ccco2)C[C@@H]1C [Example I-291]
15 | 1 to 10 µM | > 0.5 µM | 0.1 to 0.5 µM | CC(=O)N1c2ccc(-c3ccc(C(=O)NC4CC4)cc3)cc2N(C(=O)c2ccco2)C[C@@H]1C [Example I-292]
16 | 1 to 10 µM | < 0.05 µM | 0.1 to 0.5 µM | CC(=O)N1c2ccc(-c3ccc(S(=O)(=O)NCCO)cc3)cc2N(C(=O)c2ccco2)C[C@@H]1C [Example I-293]
17 | 0.1 to 1 µM | < 0.05 µM | 0.1 to 0.5 µM | CC(=O)N1c2ccc(-c3ccc(S(C)(=O)=O)cc3)cc2N(C(=O)OC(C)C)C[C@@H]1C [Example I-294]
18 | 1 to 10 µM | < 0.05 µM | 0.1 to 0.5 µM | CC(=O)N1c2ccc(-c3ccc(N)nc3)cc2N(C(=O)c2ccco2)C[C@@H]1C [Example I-295]
19 | 0.1 to 1 µM | 0.05 to 0.5 µM | 0.1 to 0.5 µM | CC(=O)N1c2ccc(-c3ccc4c(c3)CCN4S(C)(=O)=O)cc2N(C(=O)c2ccco2)C[C@@H]1C [Example I-299]

Row | IC50 (BRD4 BD1) | IC50 (BRD4 BD2) | IC50 (MV4-11 cells) | SMILES
20 | < 0.1 µM | 0.05 to 0.5 µM | 0.1 to 0.5 µM | CC(=O)N1c2ccc(-c3cnn(CCS(C)(=O)=O)c3)cc2N(C(=O)OC(C)C)C[C@@H]1C [Example I-303]
21 | 0.1 to 1 µM | 0.05 to 0.5 µM | 0.1 to 0.5 µM | CC(=O)N1c2ccc(-c3cnn(CC(N)=O)c3)cc2N(C(=O)OC(C)C)C[C@@H]1C [Example I-304]
22 | 0.1 to 1 µM | 0.05 to 0.5 µM | 0.1 to 0.5 µM | CC(=O)N1c2ccc(-c3cnn(CC(=O)N(C)C)c3)cc2N(C(=O)OC(C)C)C[C@@H]1C [Example I-305]
23 | 0.1 to 1 µM | 0.05 to 0.5 µM | 0.1 to 0.5 µM | CC(=O)N1c2ccc(-c3cnn(CCN4CCOCC4)c3)cc2N(C(=O)OC(C)C)C[C@@H]1C [Example I-306]
24 | 0.1 to 1 µM | 0.05 to 0.5 µM | 0.1 to 0.5 µM | CC(=O)N1c2ccc(-c3cnn(C4CCOCC4)c3)cc2N(C(=O)OC(C)C)C[C@@H]1C [Example I-307]
25 | 0.1 to 1 µM | 0.05 to 0.5 µM | 0.1 to 0.5 µM | CC(=O)N1c2ccc(-c3cnn(CC4CC4)c3)cc2N(C(=O)OC(C)C)C[C@@H]1C [Example I-308]
26 | 0.1 to 1 µM | 0.05 to 0.5 µM | > 0.5 µM | CC(C)OC(=O)N1C[C@H](C)N(C(=O)C2CC2)c2ccc(-c3cnn(CCS(C)(=O)=O)c3)cc21 [Example I-309]
27 | 0.1 to 1 µM | 0.05 to 0.5 µM | > 0.5 µM | CC(C)OC(=O)N1C[C@H](C)N(C(=O)C2CC2)c2ccc(-c3cnn(CC(N)=O)c3)cc21 [Example I-310]
28 | 0.1 to 1 µM | 0.05 to 0.5 µM | 0.1 to 0.5 µM | CC(C)OC(=O)N1C[C@H](C)N(C(=O)C2CC2)c2ccc(-c3cnn(CCN4CCOCC4)c3)cc21 [Example I-312]
29 | 0.1 to 1 µM | 0.05 to 0.5 µM | 0.1 to 0.5 µM | CC(C)OC(=O)N1C[C@H](C)N(C(=O)C2CC2)c2ccc(-c3cnn(C4CCOCC4)c3)cc21 [Example I-313]
30 | 0.1 to 1 µM | 0.05 to 0.5 µM | 0.1 to 0.5 µM | COCCn1cc(-c2ccc3c(c2)N(C(=O)OC(C)C)C[C@H](C)N3C(=O)C2CC2)cn1 [Example I-314]
31 | 0.1 to 1 µM | 0.05 to 0.5 µM | 0.1 to 0.5 µM | CC(C)OC(=O)N1C[C@H](C)N(C(=O)C2CC2)c2ccc(-c3cnn(CCO)c3)cc21 [Example I-315]
32 | 0.1 to 1 µM | 0.05 to 0.5 µM | 0.1 to 0.5 µM | CC(C)OC(=O)N1C[C@H](C)N(C(=O)C2CC2)c2ccc(-c3cnn(CC4CC4)c3)cc21 [Example I-316]
33 | 0.1 to 1 µM | 0.05 to 0.5 µM | 0.1 to 0.5 µM | CC(C)OC(=O)N1C[C@H](C)N(C(=O)C2CC2)c2ccc(-c3cnn(C4COC4)c3)cc21 [Example I-317]
34 | 0.1 to 1 µM | 0.05 to 0.5 µM | > 0.5 µM | COC(=O)N1c2ccc(-c3cnn(CCS(C)(=O)=O)c3)cc2N(C(=O)OC(C)C)C[C@@H]1C [Example I-318]
35 | 0.1 to 1 µM | 0.05 to 0.5 µM | > 0.5 µM | COC(=O)N1c2ccc(-c3cnn(CC(N)=O)c3)cc2N(C(=O)OC(C)C)C[C@@H]1C [Example I-319]
36 | 0.1 to 1 µM | 0.05 to 0.5 µM | > 0.5 µM | COC(=O)N1c2ccc(-c3cnn(CC(=O)N(C)C)c3)cc2N(C(=O)OC(C)C)C[C@@H]1C [Example I-320]
37 | 0.1 to 1 µM | 0.05 to 0.5 µM | 0.1 to 0.5 µM | COC(=O)N1c2ccc(-c3cnn(CCN4CCOCC4)c3)cc2N(C(=O)OC(C)C)C[C@@H]1C [Example I-321]
38 | 0.1 to 1 µM | 0.05 to 0.5 µM | 0.1 to 0.5 µM | COC(=O)N1c2ccc(-c3cnn(C4CCOCC4)c3)cc2N(C(=O)OC(C)C)C[C@@H]1C [Example I-322]

— US10703764B2, “Benzopiperazine compositions as BET bromodomain inhibitors” (FORMA Therapeutics, Inc., priority 2013, dated 2020)
